One compound from US20090281143A1, “Dose Reduction of a Cannabinoid CB1 Receptor Antagonist in the Treatment of Overweight or Obesity” (N-Gene Research Laboratories, Inc., priority 2007, published 2009) can be followed below.

The test in a line: Inhibition of body weight gain in high fat diet exposed mice. The conditions noted are these: for weight gain in relation to that of the control group fed with standard laboratory chow: excess over chow control.

Protocol: OF-1 female mice weighing about 18-20 g at the beginning of the experiment were used in the study. […] The high fat diet consisted of palatable food that contained 50% fat. The group on standard laboratory chow was also treated with vehicle. Treatment was performed with all of the drugs, orally, at 5 ppm. The weight of the animals was measured weekly.

In the case of `Cc1c(C(=O)NN2CCCCC2)nn(-c2ccc(Cl)cc2Cl)c1-c1ccc(Cl)cc1` [rimonabant, N-piperidino-5-(4-chlorophenyl)-1-(2,4-dichlorophenyl)-4-methylpyrazole-3-carboxamide], the “Body weight gain in g after 2 weeks” value was found to be 10.6 g (rimonabant 2 mg/kg daily oral, after 2 weeks) and 10.2 g (rimonabant 10 mg/kg daily oral, after 2 weeks). Moreover, the “Body weight gain in g after 3 weeks” value was determined as 14.1 g (rimonabant 2 mg/kg daily oral, after 3 weeks) and 13.0 g (rimonabant 10 mg/kg daily oral, after 3 weeks). For the same compound, the “weight gain in relation to that of the control group fed with standard laboratory chow” value is, setting by setting: (rimonabant 2 mg/kg, after 2 weeks) 22%; (rimonabant 2 mg/kg, after 3 weeks) 33%; (rimonabant 10 mg/kg, after 2 weeks) 17%; (rimonabant 10 mg/kg, after 3 weeks) 22.6%.
